Drawing on patent US10214512B2, “Factor XIA inhibitors” (MERCK SHARP & DOHME CORP., priority 2015, dated 2019), this text covers Ki for 26 compounds.

As a reminder, the Ki is a measure of affinity in units of concentration, obtained from inhibition or displacement.

This assay concerns the target purified human Factor XIa (Homo sapiens (Human), UniProt P03951). Description: Factor XIa Assay. The assay is classed as biochemical. The conditions noted are these: purified human Factor XIa 40 pM; substrate Z-Gly-Pro-Arg-AFC 100 μM; 50 mM HEPES pH 7.4; read-out: Human FXIa Ki. The method, then: The effectiveness of a compound of the present invention as an inhibitor of Coagulation Factor XIa can be determined using a relevant purified serine protease, and an appropriate synthetic substrate. The rate of hydrolysis of the chromogenic or fluorogenic substrate by the relevant serine protease was measured both in the absence and presence of compounds of the present invention. Assays were conducted at rt or at 37° C. […] A decrease in the rate of fluorescence change in the presence of inhibitor is indicative of enzyme inhibition. Such methods are known to one skilled in the art. The results of this assay are expressed as the inhibitory constant, Ki.
Factor XIa determinations were made in 50 mM HEPES buffer at pH 7.4 containing 150 mM NaCl, 5 mM CaCl2, and 0.1% PEG 8000 (polyethylene glycol; JT Baker or Fisher Scientific). Determinations were made using purified human Factor XIa at a final concentration of 40 pM (Sekisui Diagnostics) and he synthetic substrate, Z-Gly-Pro-Arg-AFC, TFA salt (Sigma #C0980) at a concentration of 100 μM.
Times required to achieve equilibration between enzyme and inhibitor were determined in control experiments. Initial velocities of product formation in the absence (Vo) or presence of inhibitor (Vi) were measured. Assuming competitive inhibition, and that unity is negligible compared Km/[S], [I]/e, and [I]/e (where [S], [I], and e respectively represent the total concentrations, of substrate, inhibitor and enzyme), the equilibrium constant (Ki) for dissociation of the inhibitor from the enzyme can be obtained from the dependence of Vo/Vi on [I] shown in the following equation.

purified human Factor XIa, sequence (P03951 388-625): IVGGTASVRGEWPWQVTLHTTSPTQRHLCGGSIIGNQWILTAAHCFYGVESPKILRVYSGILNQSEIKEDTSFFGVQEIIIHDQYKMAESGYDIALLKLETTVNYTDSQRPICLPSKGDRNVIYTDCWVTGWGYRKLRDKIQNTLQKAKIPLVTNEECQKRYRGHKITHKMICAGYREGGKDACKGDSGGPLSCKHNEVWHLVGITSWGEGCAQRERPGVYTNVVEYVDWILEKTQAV
purified human Factor XIa, sequence (P03951 19-387 partner): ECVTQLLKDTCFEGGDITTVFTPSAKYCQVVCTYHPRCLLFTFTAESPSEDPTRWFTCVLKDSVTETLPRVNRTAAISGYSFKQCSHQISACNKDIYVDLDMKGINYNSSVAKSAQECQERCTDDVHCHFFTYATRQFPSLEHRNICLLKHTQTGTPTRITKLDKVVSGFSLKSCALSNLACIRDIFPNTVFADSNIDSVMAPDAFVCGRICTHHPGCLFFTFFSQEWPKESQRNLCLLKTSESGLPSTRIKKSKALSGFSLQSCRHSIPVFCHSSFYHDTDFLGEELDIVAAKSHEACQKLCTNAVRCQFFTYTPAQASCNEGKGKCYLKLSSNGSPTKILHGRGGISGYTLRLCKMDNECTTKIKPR

As to `O=C1CCCCC(c2ccc(-c3c(-n4cc(C(=O)O)nn4)ccc(Cl)c3F)cn2)c2cc(ncc2F)-c2cc(F)ccc2N1` (single isomer, unassigned) [Example 91-a], the Ki is 11 nM.

As for `COC(=O)Nc1ccc2c(c1)NC(=O)C[C@H]1C[C@@H]1C[C@H](c1ccc(-c3c(F)ccc(Cl)c3F)c[n+]1[O-])c1nc-2c(C)[nH]1` (single isomer, unassigned) [Example 154], the Ki was determined as 0.4 nM.

In the case of `COC(=O)Nc1ccc2c(c1)NC(=O)C(C)CCCC(c1ccc(-c3c(F)ccc(Cl)c3F)c[n+]1[O-])c1ccc(F)c-2c1` (single isomer, unassigned) [Example 86-c, 5-(3-Chloro-2,6-difluorophenyl)-2-(1^6-fluoro-2^4-((methoxycarbonyl)amino)-5-methyl-4-oxo-3-aza-1(1,3),2(1,2) -dibenzenacyclononaphane-9-yl)pyridine 1-oxide], the Ki is 115 nM.

For the compound `COC(=O)Nc1ccc2c(c1)NC(=O)CCCCC(c1ccc(-c3c(F)ccc(Cl)c3F)cn1)c1ccc(F)c-2c1` (centres unmarked) [Example 54, methyl (9-(5-(3-chloro-2,6-difluorophenyl)pyridin-2-yl)-1^6-fluoro-4-oxo-3-aza-1(1,3),2(1,2)-dibenzenacyclononaphane-2^4-yl)carbamate], the Ki came to 839 nM.

On to `C[C@H]1CCC[C@H](c2ccc(-c3ccccc3-n3cc(Cl)nn3)c[n+]2[O-])c2cccc(c2)-c2c(cnn2C(F)F)NC1=O` (single isomer, unassigned) [Example 172-b], for which the Ki came out at 11.9 nM.

As for `COC(=O)Nc1cc(F)c2c(c1)NC(=O)C(C)CCCC(c1ccc(-c3c(F)ccc(Cl)c3F)c[n+]1[O-])c1cccc-2c1` (single isomer, unassigned) [Example 85-d, 5-(3-Chloro-2,6-difluorophenyl)-2-(2^6-fluoro-2^4-((methoxycarbonyl)amino)-5-methyl-4-oxo-3-aza-1(1,3),2(1,2)-dibenzenacyclononaphane-9-yl)pyridine 1-oxide], the Ki stood at 160 nM.

Take `C[C@H]1CCC[C@@H](c2ccc(-c3cc(Cl)ccc3-n3cc(Cl)nn3)c[n+]2[O-])c2cccc(c2)-c2c(cnn2C(F)F)NC1=O` (single isomer, unassigned) [Example 166-d]: the inhibition constant Ki was greater than 875 nM.

Consider `COC(=O)Nc1ccc2c(c1)NC(=O)C(C)CCCC(c1ccc(-c3c(F)ccc(Cl)c3F)c[n+]1[O-])c1ccc(F)c-2c1` (single isomer, unassigned) [Example 86-b, 5-(3-Chloro-2,6-difluorophenyl)-2-(1^6-fluoro-2^4-((methoxycarbonyl)amino)-5-methyl-4-oxo-3-aza-1(1,3),2(1,2) -dibenzenacyclononaphane-9-yl)pyridine 1-oxide], for which the Ki came to 782 nM.

Consider `COC(=O)Nc1ccc2c(c1)NC(=O)C(C)CCCC(c1ccc(-c3c(F)ccc(Cl)c3F)c[n+]1[O-])c1cccc-2c1` (single isomer, unassigned) [Example 50-c, 5-(3-chloro-2,6-difluorophenyl)-2-(2^4-((methoxycarbonyl)amino)-5-methyl-4-oxo-3-aza-1(1,3),2(1,2)-dinenzenacyclononaphane-9-yl)pyridine 1-oxide], for which the inhibition constant (Ki) came out at 270 nM.

In the case of `COC(=O)Nc1ccc2c(c1)NC(=O)CCCCC(c1ccc(-c3c(-n4cc(C(F)(F)F)cn4)ccc(Cl)c3F)c[n+]1[O-])c1nc-2c[nH]1` (centres unmarked) [Example 116], the Ki turned out to be 208 nM.

In the case of `COC(=O)Nc1ccc2c(c1)NC(=O)[C@H](C)CCC[C@@H](c1ccc(-c3c(F)cccc3F)c[n+]1[O-])c1nc-2c(C)[nH]1` (single isomer, unassigned) [Example 143-d], the Ki turned out to be 18.6 nM.

Regarding `COC(=O)Nc1ccc2c(c1)NC(=O)CCCC[C@H](c1ccc(-c3c(F)ccc(Cl)c3F)c[n+]1[O-])c1cc(F)cc-2c1` (single isomer, unassigned) [Example 67], the Ki is 0.55 nM.

On to `COC(=O)Nc1ccc2c(c1)NC(=O)CCCCC(c1ccc(-c3c(F)ccc(Cl)c3F)c[n+]1[O-])c1cnn-2c1` (racemic) [Example 162, (Z)-5-(3-chloro-2,6-difluorophenyl)-2-(2^5-((methoxycarbonyl)amino)-4-oxo-1^1H-3-aza-1(1,4)-pyrazola-2(1,2)-benzenacyclononaphane-9-yl)pyridine 1-oxide], for which the Ki was determined as 6.8 nM.

For `CCOC(=O)Nc1ccc2c(c1)NC(=O)CCCC[C@H](c1ccc(-c3c(F)ccc(Cl)c3F)c[n+]1[O-])c1nc-2c(C)[nH]1` (single isomer, unassigned) [Example 134], the Ki was found to be 0.17 nM.

Turning to `O=C1CCCCC(O)(c2ccc(-c3cc(Cl)ccc3-n3cnnn3)c[n+]2[O-])c2nc(c[nH]2)-c2cc(F)ccc2N1` (single isomer, unassigned) [Example 107-a, (Z)-5-(5-Chloro-2-(1H-tetrazol-1-yl)phenyl)-2-(2^5-fluoro-9-hydroxy-4-oxo-1^1H-3-aza-1(4,2)-imidazola-2(1,2)-benzenacyclononaphane-9-yl)pyridine 1-oxide], the Ki came out at 46 nM.

Turning to `COC(=O)Nc1ccc2c(c1)NC(=O)CCCCC(c1ccc(-c3c(F)ccc(Cl)c3F)cn1)c1cc-2ncn1` (centres unmarked) [Example 64, methyl (9-(5-(3-chloro-2,6-difluorophenyl)pyridin-2-yl)-4-oxo-3-aza-1(4,6)-pyrimidina-2(1,2)-benzenacyclononaphane-2^4-yl)carbamate], the inhibitory constant (Ki) was 164 nM.

Turning to `O=C1CCCC[C@@H](c2ccc(-c3cc(Cl)ccc3-n3cnnn3)c[n+]2[O-])c2cccc(c2)-c2cc(F)ccc2N1` [Example 2-b, (R) 5-(5-chloro-2-(1H-tetrazol-1-yl)phenyl)-2-(2^5-fluoro-4-oxo-3-aza-1(1,3),2(1,2)-dibenzenacyclononaphane-9-yl)pyridine 1-oxide], the Ki came to 83.1 nM.

As for `COC(=O)Nc1ccc2c(c1)NC(=O)CCCCC(c1ccc(-c3c(F)ccc(Cl)c3F)cn1)c1cc(F)c(F)c-2c1` (centres unmarked) [Example 55, methyl (9-(5-(3-chloro-2,6-difluorophenyl)pyridin-2-yl)-1^5,1^6-difluoro-4-oxo-3-aza-1(1,3),2(1,2)-dibenzenacyclononaphane-2^4-yl)carbamate], the Ki was greater than 875 nM.

Regarding `COC(=O)Nc1ccc2c(c1)NC(=O)CCCCC(c1ccc(-c3c(F)ccc(Cl)c3F)cn1)c1ccc(F)c-2n1` (centres unmarked) [Example 63, methyl (9-(5-(3-chloro-2,6-difluorophenyl)pyridin-2-yl)-1^3-fluoro-4-oxo-3-aza-1(2,6)-pyridina-2(1,2)-benzenacyclononaphane-2^4-yl)carbamate], the Ki is greater than 875 nM.

As for `COC(=O)Nc1ccc2c(c1)NC(=O)C(C)CCCC(c1ccc(-c3c(F)ccc(Cl)c3F)c[n+]1[O-])c1cccc-2c1` (single isomer, unassigned) [Example 50-d, 5-(3-chloro-2,6-difluorophenyl)-2-(2^4-((methoxycarbonyl)amino)-5-methyl-4-oxo-3-aza-1(1,3),2(1,2)-dinenzenacyclononaphane-9-yl)pyridine 1-oxide], the Ki was 209 nM.

Consider `O=C1CCCCC(c2ccc(-c3c(-n4cnnn4)ccc(Cl)c3F)cn2)c2cc(ncc2F)-c2cc(F)ccc2N1` (centres unmarked) [Example 59, 9-(5-(3-chloro-2-fluoro-6-(1h-tetrazol-1-yl)phenyl)pyridin-2-yl)-1^5,2^5-difluoro-3-aza-1(2,4)-pyridina-2(1,2)-benzenacyclononaphan-4-one], for which the Ki turned out to be 8.9 nM.

Take `COC(=O)Nc1ccc2c(c1)NC(=O)C[C@H]1C[C@@H]1C[C@H](c1ccc(-c3c(F)cccc3F)c[n+]1[O-])c1nc-2c(C)[nH]1` (single isomer, unassigned) [Example 155]: the Ki came to 11.4 nM.

As for `Cn1cc2c(n1)-c1cccc(c1)C(c1ccc(-c3c(F)ccc(Cl)c3F)c[n+]1[O-])CCCCC(=O)N2` (centres unmarked) [Example 163, 5-(3-chloro-2,6-difluorophenyl)-2-(1^1-methyl-8-oxo-1^1H-9-aza-1(3,4) -pyrazola-2(1,3)-benzenacyclononaphane-3-Yl)pyridine 1-oxide], the Ki was determined as 22.6 nM.

For `COC(=O)Nc1ccc2c(c1)NC(=O)CCCCC(c1ccc(-c3c(F)ccc(Cl)c3F)cn1)c1cc(F)cc-2c1` (centres unmarked) [Example 53, methyl (9-(5-(3-chloro-2,6-difluorophenyl)pyridin-2-yl)-1^5-fluoro-4-oxo-3-aza-1(1,3),2(1,2)-dibenzenacyclononaphane-2^4-yl)carbamate], the Ki is greater than 875 nM.

`C[C@@H]1CCC[C@@H](c2ccc(-c3cc(Cl)ccc3-n3cc(Cl)nn3)c[n+]2[O-])c2cccc(c2)-c2c(cnn2C(F)F)NC1=O` (single isomer, unassigned) [Example 166-b]: the inhibition constant Ki was 195 nM.

Regarding `Cn1ncc2c1-c1cccc(c1)C(c1ccc(-c3c(F)ccc(Cl)c3F)c[n+]1[O-])CCCCC(=O)N2` (centres unmarked) [Example 164, 5-(3-chloro-2,6-difluorophenyl)-2-(1^1-methyl-8-oxo-1H-9-aza-1(5,4) -pyrazola-2(1,3)-benzenacyclononaphane-3-Yl)pyridine 1-oxide], the Ki is greater than 875 nM.
